Results from publication PMC10302398, “Mechanistic Insights into the Antibiofilm Mode of Action of Ellagic Acid” (Pharmaceutics, 2023).

Legend:
[1] = biological target: T1, WrbA (NADH:quinone oxidoreductase WrbA; WrbAJW) (Escherichia coli, UniProt P0A8G6); assay: NADH:DCPIP oxidoreductase activity assay of purified WrbAJW; type: biochemical
[2] = biological target: T1, WrbA (NADH:quinone oxidoreductase WrbA; WrbAJW); assay: MST (Kd […]); also SPR (Kd […]) and NADH:DCPIP oxidoreductase inhibition (IC50 […]); type: binding

T1 sequence (P0A8G6 2-198): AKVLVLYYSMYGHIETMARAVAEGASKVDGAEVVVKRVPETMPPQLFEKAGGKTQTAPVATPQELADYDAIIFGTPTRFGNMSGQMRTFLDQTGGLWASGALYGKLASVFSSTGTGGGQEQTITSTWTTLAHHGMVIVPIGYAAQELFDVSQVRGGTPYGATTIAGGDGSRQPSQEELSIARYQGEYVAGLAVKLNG

Compound: O=C(O)c1ccccc1O [SA, salicylic acid]
- IC50 [1]: 7.85 ± 2.65 mM

Compound: O=c1oc2c(O)c(O)cc3c(=O)oc4c(O)c(O)cc1c4c23 [EA, ellagic acid]
- Kd [2]: 0.0015 ± 0.0004 mM
